Entries after “also recorded” stand apart in the source; their conditions may differ.
How the values were obtained:
[1] = target: NADH-fumarate reductase (Ascaris suum, UniProt P24875); assay: NADH-fumarate reductase inhibitory activity, Ascaris suum mitochondrial fraction, NADH absorption at 340 nm; format: biochemical
Protocol: NADH-fumarate reductase inhibitory activity of FT-0554A substance of the present invention is explained as follows.
Muscles of Ascaris suum were homogenized in 120 mM sodium phosphate solution (pH 7.0) and centrifuged at 3000×g for 10 minutes to collect the supernatant solution. The supernatant was further centrifuged at 10000×g for 20 minutes to collect the precipitate. The precipitate was suspended in 120 mM sodium phosphate solution (pH 7.0) to obtain mitochondorial fraction.
After 10 μl of test sample dissolved in 50% dimethyl sulfoxide solution was added into 96 wells microplate, 80 μl of 120 mM sodium phosphate solution (pH 7.0) containing 0.35 mM NADH, 7.2 mM disodium fumarate and 18 mg/ml bovine serum albumin was added thereto, and pre-incubated in the microplate reader ELX808 (Bio-Teck Industries Co.) at 37° C. for 5 minutes. Mithochondrial fraction of Ascaris suum 10 μl (protein content 0.3 mg) was added therein and incubated at 37° C. for 10 minutes. Absorption of NADH at 340 nm was measured every 15 seconds.
As a result of quantitative measurement of NADH-fumarate reductase activity shown by decrease in the slope of absorbancy at 340 nm, 50% inhibition of NADH-fumarate reductase activity were obtained at 0.4 μM of FT-0554A substance. Consequently, FT-0554A substance can be expected to use as drug for treatment or prevention of helminthiasis.

[2] = Solubility in solvent; format: physicochemical

| Compound | NADH-fumarate reductase inhibitory activity (in words) [1] | Solubility in solvent ([2]; chloroform and ethyl acetate) | Solubility in solvent ([2]; water and n-hexane) |
| --- | --- | --- | --- |
| CCC(C)/C=C/C=C(\C)CC(C)/C=C/C=C/C1OC(=O)C(O)C2OC12C (stereo not shown) [FT-0554 substance, reference compound] | had NADH-fumarate reductase inhibitory activity |  |  |
| CCC(C)/C=C/C=C(\C)CC(C)/C=C/C=C/C(O)C1(C)C=C(O)C(=O)O1 (stereo not shown) [FT-0554A substance] | equivalent level of inhibitory activity | soluble | insoluble; also recorded: hardly soluble |

— US6835747B1, “Ft-0554a substances and process for the preparation thereof” (The Kitasato Institute, priority 2003, dated 2004)
